EC50 and IC50 data for 14 molecules are collected here from BindingDB's records for doi:10.1021/jm030452x (University of Arizona, 2004).

Usually EC50 stands for the concentration giving half of the maximal effect. As a reminder, the IC50 is the concentration that inhibits the measured activity by half. Higher therefore signals weaker potency in that assay.

In the first assay the target is Melanocortin receptor 1 (Rana pipiens). Nature of the assay: Effective concentration required for maximum agonist response at melanocortin 1 receptor from frog skin.
Regarding `C[C@@H](O)[C@H](NC(=O)[C@H]1CSSC[C@H](NC(=O)[C@H](N)Cc2ccccc2)C(=O)N[C@@H](Cc2cnc[nH]2)C(=O)N[C@@H](Cc2ccccc2)C(=O)N[C@@H](CCCNC(=N)N)C(=O)N[C@H](Cc2c[nH]c3ccccc23)C(=O)N1)C(N)=O` [1N-(1-carbamoyl-2-hydroxypropyl)-15-[3-amino(imino)methylaminopropyl]-6-(1-amino-2-phenylethylcarboxamido)-12-benzyl-9-(1H-5-imidazolylmethyl)-18-(1H-3-indolylmethyl)-7,10,13,16,19-pentaoxo-3,4-dithia-8,11,14,17,20-pentaazacycloicosane-1-carboxam], the EC50 was found to be 10 nM. This counts as double-digit nanomolar.
On the same count and under the same terms, the figure for `C[C@@H](O)[C@H](NC(=O)[C@@H]1CSSC[C@H](NC(=O)[C@H](N)Cc2ccccc2)C(=O)N[C@@H](Cc2cnc[nH]2)C(=O)N[C@@H](Cc2ccc(F)cc2)C(=O)N[C@@H](CCCNC(=N)N)C(=O)N[C@H](Cc2c[nH]c3ccccc23)C(=O)N1)C(N)=O` [1N-(1-carbamoyl-2-hydroxypropyl)-15-[3-amino(imino)methylaminopropyl]-6-(1-amino-2-phenylethylcarboxamido)-12-(4-fluorobenzyl)-9-(1H-5-imidazolylmethyl)-18-(1H-3-indolylmethyl)-7,10,13,16,19-pentaoxo-3,4-dithia-8,11,14,17,20-pentaazacycloicosane-] is 1000 nM; for `C[C@@H](O)[C@H](NC(=O)[C@H]1CSSC[C@H](NC(=O)[C@@H](N)Cc2ccccc2)C(=O)N[C@@H](Cc2cnc[nH]2)C(=O)N[C@H](Cc2ccccc2)C(=O)N[C@@H](CCCNC(=N)N)C(=O)N[C@H](Cc2c[nH]c3ccccc23)C(=O)N1)C(N)=O` [1N-(1-carbamoyl-2-hydroxypropyl)-15-[3-amino(imino)methylaminopropyl]-6-(1-amino-2-phenylethylcarboxamido)-12-benzyl-9-(1H-5-imidazolylmethyl)-18-(1H-3-indolylmethyl)-7,10,13,16,19-pentaoxo-3,4-dithia-8,11,14,17,20-pentaazacycloicosane-1-carboxam] it is 3000 nM.
The same measure, in the same setting: the figure for `C[C@@H](O)[C@H](NC(=O)[C@@H]1CSSC[C@H](NC(=O)[C@H](N)Cc2ccccc2)C(=O)N[C@@H](Cc2cnc[nH]2)C(=O)N[C@@H](Cc2cccc3ccccc23)C(=O)N[C@@H](CCCNC(=N)N)C(=O)N[C@H](Cc2c[nH]c3ccccc23)C(=O)N1)C(N)=O` [1N-(1-carbamoyl-2-hydroxypropyl)-15-[3-amino(imino)methylaminopropyl]-6-(1-amino-2-phenylethylcarboxamido)-9-(1H-5-imidazolylmethyl)-18-(1H-3-indolylmethyl)-12-(1-naphthylmethyl)-7,10,13,16,19-pentaoxo-3,4-dithia-8,11,14,17,20-pentaazacycloicosan] is 5000 nM; for `C[C@@H](O)[C@H](NC(=O)[C@@H]1CCSSC[C@H](NC(=O)[C@H](N)Cc2ccccc2)C(=O)N[C@@H](Cc2cnc[nH]2)C(=O)N[C@H](Cc2ccccc2)C(=O)N[C@@H](CCCNC(=N)N)C(=O)N[C@@H](Cc2c[nH]c3ccccc23)C(=O)N1)C(N)=O` [1N-(1-carbamoyl-2-hydroxypropyl)-16-[3-amino(imino)methylaminopropyl]-7-(1-amino-2-phenylethylcarboxamido)-13-benzyl-10-(1H-5-imidazolylmethyl)-19-(1H-3-indolylmethyl)-8,11,14,17,20-pentaoxo-4,5-dithia-9,12,15,18,21-pentaazacyclohenicosane-1-carb] it is 1000 nM; for `C[C@@H](O)[C@H](NC(=O)[C@H]1NC(=O)[C@H](Cc2c[nH]c3ccccc23)NC(=O)[C@H](CCCNC(=N)N)NC(=O)[C@@H](Cc2ccccc2)NC(=O)[C@H](Cc2cnc[nH]2)NC(=O)[C@@H](NC(=O)[C@H](N)Cc2ccccc2)CSSC1(C)C)C(N)=O` [H-D-Phe-c[Cys-His-D-Phe-Arg-Trp-Pen]-Thr-NH2] it is 100 nM.
`C[C@@H](O)[C@H](NC(=O)[C@@H]1CSSCC[C@H](NC(=O)[C@H](N)Cc2ccccc2)C(=O)N[C@@H](Cc2cnc[nH]2)C(=O)N[C@H](Cc2ccccc2)C(=O)N[C@@H](CCCNC(=N)N)C(=O)N[C@@H](Cc2c[nH]c3ccccc23)C(=O)N1)C(N)=O` [H-D-Phe-c[Hcy-His-D-Phe-Arg-Trp-Cys]-Thr-NH2] showed a 50% effective concentration (EC50) of 0.3 nM. This EC50 lies about 330-fold lower than the previous one.
Same read-out and setting: in the case of `C[C@@H](O)[C@H](NC(=O)[C@@H]1CCCCNC(=O)C[C@H](NC(=O)[C@H](N)Cc2ccccc2)C(=O)N[C@@H](Cc2cnc[nH]2)C(=O)N[C@H](Cc2ccccc2)C(=O)N[C@@H](CCCNC(=N)N)C(=O)N[C@@H](Cc2c[nH]c3ccccc23)C(=O)N1)C(N)=O` [1N-(1-carbamoyl-2-hydroxypropyl)-7-[3-amino(imino)methylaminopropyl]-16-(1-amino-2-phenylethylcarboxamido)-10-benzyl-13-(1H-5-imidazolylmethyl)-4-(1H-3-indolylmethyl)-3,6,9,12,15,18-hexaoxo-2,5,8,11,14,19-hexaazacyclotricosane-1-carboxamide] it was 0.1 nM; in that of `C[C@H](O)[C@@H](NC(=O)[C@H]1CSSC[C@H](NC(=O)[C@H](N)Cc2ccccc2)C(=O)N[C@@H](Cc2cnc[nH]2)C(=O)N[C@@H](Cc2ccc(Cl)cc2)C(=O)N[C@@H](CCCNC(=N)N)C(=O)N[C@H](Cc2c[nH]c3ccccc23)C(=O)N1)C(N)=O` [1N-(1-carbamoyl-2-hydroxypropyl)-15-[3-amino(imino)methylaminopropyl]-6-(1-amino-2-phenylethylcarboxamido)-12-(4-chlorobenzyl)-9-(1H-5-imidazolylmethyl)-18-(1H-3-indolylmethyl)-7,10,13,16,19-pentaoxo-3,4-dithia-8,11,14,17,20-pentaazacycloicosane-], 30 nM.

In a further assay the target is Melanocyte-stimulating hormone receptor (Rana pipiens). Nature of the assay: Inhibition of 1 nM alpha melanocortin stimulating hormone (MSH) from frog skin.
In turn, `C[C@@H](O)[C@H](NC(=O)[C@H]1NC(=O)[C@H](Cc2c[nH]c3ccccc23)NC(=O)[C@H](CCCN=C(N)N)NC(=O)[C@@H](Cc2c[nH]c3ccccc23)NC(=O)[C@H](Cc2ccc(O)cc2)NC(=O)[C@@H](NC(=O)[C@H](N)Cc2ccccc2)CSSC1(C)C)C(N)=O` [1N-(1-carbamoyl-2-hydroxypropyl)-15-[3-amino(imino)methylaminopropyl]-6-(1-amino-2-phenylethylcarboxamido)-9-(4-hydroxybenzyl)-12,18-di(1H-3-indolylmethyl)-2,2-dimethyl-7,10,13,16,19-pentaoxo-3,4-dithia-8,11,14,17,20-pentaazacycloicosane-1-carboxami] registered an IC50 of 1000 nM.
In turn, `C[C@H](O)[C@@H](NC(=O)[C@H]1CSSC[C@H](NC(=O)[C@@H](N)Cc2ccccc2)C(=O)N[C@@H](Cc2c[nH]cn2)C(=O)N2Cc3ccccc3C[C@H]2C(=O)N[C@@H](CCCN=C(N)N)C(=O)N[C@H](Cc2c[nH]c3ccccc23)C(=O)N1)C(N)=O` [(2R,3S)-2-{[(3S,6R,9S,14R,17S)-14-[(2S)-2-amino-3-phenylpropanamido]-3-{3-[(diaminomethylidene)amino]propyl}-17-(1H-imidazol-4-ylmethyl)-6-(1H-indol-3-ylmethyl)-1,4,7,15,18-pentaoxo-1H,2H,3H,4H,5H,6H,7H,8H,9H,10H,13H,14H,15H,16H,17H,18H,20H,25H,25aH-isoquinolino[3,2-m]1,2-dithia-5,8,11,14,17-pentaazacycloicosan-9-yl]formamido}-3-hydroxybutanamide] displayed an IC50 of 1000 nM.
As to `C[C@@H](O)[C@H](NC(=O)[C@H]1NC(=O)[C@H](CO)NC(=O)[C@H](CCCNC(=N)N)NC(=O)[C@@H](Cc2c[nH]c3ccccc23)NC(=O)[C@H](Cc2ccc(O)cc2)NC(=O)[C@@H](NC(=O)[C@H](N)Cc2ccccc2)CSSC1(C)C)C(N)=O` [1N-(1-carbamoyl-2-hydroxypropyl)-15-[3-amino(imino)methylaminopropyl]-6-(1-amino-2-phenylethylcarboxamido)-9-(4-hydroxybenzyl)-18-hydroxymethyl-12-(1H-3-indolylmethyl)-2,2-dimethyl-7,10,13,16,19-pentaoxo-3,4-dithia-8,11,14,17,20-pentaazacycloicosane], the IC50 is 1000 nM.
In the case of `C[C@@H](O)[C@H](NC(=O)[C@H]1NC(=O)[C@H](Cc2c[nH]c3ccccc23)NC(=O)[C@H](CCCN=C(N)N)NC(=O)[C@@H](Cc2c[nH]c3ccccc23)NC(=O)[C@H](Cc2ccccc2)NC(=O)[C@@H](NC(=O)[C@H](N)Cc2ccccc2)CSSC1(C)C)C(N)=O` [1N-(1-carbamoyl-2-hydroxypropyl)-15-[3-amino(imino)methylaminopropyl]-6-(1-amino-2-phenylethylcarboxamido)-9-benzyl-12,18-di(1H-3-indolylmethyl)-2,2-dimethyl-7,10,13,16,19-pentaoxo-3,4-dithia-8,11,14,17,20-pentaazacycloicosane-1-carboxamide], the IC50 came out at 1000 nM. This counts as single-digit micromolar.
As to `C[C@@H](O)[C@H](NC(=O)[C@H]1NC(=O)[C@H]([C@@H](C)O)NC(=O)[C@H](CCCNC(=N)N)NC(=O)[C@@H](Cc2c[nH]c3ccccc23)NC(=O)[C@H](Cc2ccc(I)cc2)NC(=O)[C@@H](NC(=O)[C@H](N)Cc2ccccc2)CSSC1(C)C)C(N)=O` [1N-(1-carbamoyl-2-hydroxypropyl)-15-[3-amino(imino)methylaminopropyl]-6-(1-amino-2-phenylethylcarboxamido)-18-(1-hydroxyethyl)-12-(1H-3-indolylmethyl)-9-(4-iodobenzyl)-2,2-dimethyl-7,10,13,16,19-pentaoxo-3,4-dithia-8,11,14,17,20-pentaazacycloicosane], the concentration for half-maximal inhibition (IC50) stood at 100 nM.
